EP2902035B1, “Cell-permeable peptide inhibitors of the JNK signal transduction pathway for use in the treatment of inflammatory eye diseases” (Xigen Inflammation Ltd., priority 2010, dated 2012)

What was measured:
[1] = system: Endotoxin-Induced Uveitis (EIU); assay: Scoring of Endotoxin-Induced Uveitis (EIU) by slit lamp; assay type: in vivo, Lewis rats; conditions: scored at 24 hours on a scale from 0 to 5, mean ± SEM
Procedure: For intravenous (IV) injection, 100 µL of saline (NaCl 0.9%) or the JNK-inhibitor (poly-)peptide of SEQ ID NO: 11 (20 µg/kg in saline) were injected in a tail vein using a 25G-needle connected on a 1 mL syringe (Becton Dickinson, France). For intravitreous (IVT) injection, 5 µL of saline or the JNK-inhibitor (poly-)peptide of SEQ ID NO: 11 (0.2 µg/injection in saline) were injected in both eyes using a 30G disposable needle (BD-microfine syringe, nm Médical, Asnière, France). The IV dose of 20 µg/kg (i.e. 3.5 µg/rat in rats weighing 175g) was chosen according to studies showing that the JNK-inhibitor (poly-)peptide of SEQ ID NO: 11 is active at very low doses in other models. For intravitreous injections, the inventors used the minimal dose used in direct ear application after acute noise trauma in patients. This corresponds to 5% of the dose injected intravenously. […]
In a first set of experiment, 70 rats were randomized into 14 experimental groups with 5 rats per group. […] Clinical ocular inflammation was recorded only at 24 hours (see Scoring of Endotoxin-Induced Uveitis (EIU) section). […]
Animals were examined by slit lamp at 24 hours, the clinical peak of the disease in our experiments. The intensity of clinical ocular inflammation was scored on a scale from 0 to 5 for each eye as described previously 10: grade (0) indicates no inflammation; grade (1) indicates the presence of a minimal iris and conjunctival vasodilation but without the observation of flare or cells in the anterior chamber (AC); grade (2) indicates the presence of moderate iris and conjunctival vessel dilation but without evident flare or cells in the AC; grade (3) indicates the presence of intense iris vessels dilation, flare and less than 10 cells per slit lamp field in the AC; grade (4) indicates the presence of more severe clinical signs than grade 3, with more than 10 cells in the AC with or without the formation of a hypopion; grade (5) indicates the presence of intense inflammatory reaction, fibrin formation in the AC and total seclusion of the pupil. […]

[2] = system: c-Jun phosphorylation (JNK pathway); assay: Western-Blot analysis of c-Jun phosphorylation in RPE/choroid in EIU; assay type: in vivo, Lewis rats; conditions: for relative band intensity for phospho c-Jun in comparison to tubulin (densitometry): EIU
Procedure: Retinas and RPE/choroid/sclera complexes were carefully dissected out on enucleated eyes, snap frozen and stored at -80°C until being used for RT-PCR and Western-Blot analyses.
Retinas and RPE/choroid/sclera complexes were also collected at 24 hours to analyze iNOS mRNA levels by RT-PCR and c-Jun phosphorylation state by Western-Blot. Tissues were collected only from eyes treated by IV (intravenous) injection of vehicle, IV injection of the JNK-inhibitor (poly-)peptide of SEQ ID NO: 11, IVT (intravitreal) injection of vehicle and IVT injection of the JNK-inhibitor (poly-)peptide of SEQ ID NO: 11 (n=2 eyes per condition collected from separate rats). Eyes were selected so that their EIU clinical score was representative of the mean of the experimental group they belong to, i.e 3 for eyes treated by IV and IVT injection of vehicle and 2 for eyes treated by IV or IVT injection of the JNK-inhibitor (poly-)peptide of SEQ ID NO: 11.
RPE/choroid/sclera complexes and neuroretinas (2 per experimental group) were snap frozen immediately after dissection and stored at -80°C until use. Tissues were homogenized in 500 µL of lysis buffer (MOPS SDS Running Buffer, Invitrogen, Cergy-Pontoise, France) supplemented with protease inhibitor cocktail (Roche Diagnostics, Meylan, France) (one tablet for 50 mL). After addition of LDS Sample Buffer (Invitrogen) and heating for 5 min at 100°C, equal amounts of proteins were subjected to electrophoresis in a NuPAGE 4-12% Bis-Tris gel (Invitrogen) using MOPS SDS Running Buffer. The bands obtained were then electrotransferred onto nitrocellulose membranes (Schleicher & Schuell BioScience, Dassel, Germany).
Western-blot analyses were carried out to analyze the effect of the JNK-inhibitor (poly-)peptide of SEQ ID NO: 11 on the three mitogen-activated protein kinase (MAPK) pathways. To analyze the JNK pathway, blots were sequentially incubated with a rabbit Phospho-c-Jun (Ser63) primary antibody (or Phospho-c-Jun (Ser73) antibody) and an anti-rabbit IgG HRP-linked secondary antibody according to the manufacturer's instruction (PhosphoPlus c-Jun (Ser63) II and c-Jun (Ser73) antibody kit (9260) purchased from Cell Signaling Technology (Ozyme, St Quentin Yvelines, France)). Bands were visualized using the ECL Western Blotting Detection Reagents Kit (Amersham Biosciences, Orsay, France). […] The relative band intensity for phospho c-Jun (Ser 63 or Ser73) was calculated in comparison to that for -tubulin after densitometry analysis (ImageJ software).

CC(C)C[C@@H](NC(=O)[C@@H](Cc1ccccc1)NC(=O)[C@H]1CCCN1C(=O)[C@@H](CCC(N)=O)NC(=O)[C@H](NC(=O)[C@H]1CCCN1C(=O)[C@@H](CCCNC(=N)N)NC(=O)[C@@H](CO)NC(=O)[C@@H](CCC(N)=O)NC(=O)[C@H](N)CC(=O)O)C(C)C)C(=O)N[C@H](CC(N)=O)C(=O)N[C@H](CC(C)C)C(=O)N[C@@H](C(=O)N[C@@H](C(=O)N1CCC[C@@H]1C(=O)N[C@H](CCCNC(=N)N)C(=O)N[C@H](CCCCN)C(=O)N1CCC[C@@H]1C(=O)N[C@H](CCCNC(=N)N)C(=O)N1CCC[C@@H]1C(=O)N1CCC[C@@H]1C(=O)N[C@H](CCCNC(=N)N)C(=O)N[C@H](CCCNC(=N)N)C(=O)N[C@H](CCCNC(=N)N)C(=O)N[C@H](CCC(N)=O)C(=O)N[C@H](CCCNC(=N)N)C(=O)N[C@H](CCCNC(=N)N)C(=O)N[C@H](CCCCN)C(=O)N[C@H](CCCCN)C(=O)N[C@H](CCCNC(=N)N)C(=O)NCC(=O)O)[C@H](C)O)[C@H](C)O [SEQ ID NO: 11]
EIU clinical scores ([1]; 20 µg/kg intravenous (IV) injection at LPS challenge): 2.0 ± 0.1 A.U.
EIU clinical scores ([1]; intravitreous (IVT) administration at LPS challenge (SEQ ID NO: 11: 0.2 µg/injection)): 2.2 ± 0.2 A.U.
Phosphorylation of c-Jun on Ser63 and Ser73 residues ([2]; RPE/ choroid extracts, 24 hours after intravenous or intravitreous injection): reduced
relative band intensity for phospho c-Jun in comparison to tubulin (densitometry) ([2]; RPE/ choroid, 24 hours after IV (20 µg/kg)): 0.28 ± 0.01
relative band intensity for phospho c-Jun in comparison to tubulin (densitometry) ([2]; RPE/ choroid, 24 hours after IVT (0.2 µg/injection)): 0.35 ± 0.08
decrease in c-Jun phosphorylation ([2]; RPE/ choroid, after IV or IVT administration, versus vehicle): approximately 3 fold
